The values that follow come from patent US11344552B2, “Methods for treating metastatic pancreatic cancer using combination therapies comprising liposomal irinotecan and oxaliplatin” (Ipsen Biopharm Ltd., priority 2015, dated 2022).

Like-named read-outs stand apart in the source and are kept apart here.

In series [1] the test system is pancreatic cell lines (AsPC-1, BxPC-3, Capan-2, CFPAC-1, and MiaPaCa-2). Briefly: In vitro cell growth inhibition by SN-38 exposure duration in a panel of pancreatic cell lines. The note with it: SN-38 combined with 5-FU or oxaliplatin; prolonged vs short exposure.
The next series addresses T1, topoisomerase I (Homo sapiens, UniProt P11387).
T1 sequence (P11387 1-765): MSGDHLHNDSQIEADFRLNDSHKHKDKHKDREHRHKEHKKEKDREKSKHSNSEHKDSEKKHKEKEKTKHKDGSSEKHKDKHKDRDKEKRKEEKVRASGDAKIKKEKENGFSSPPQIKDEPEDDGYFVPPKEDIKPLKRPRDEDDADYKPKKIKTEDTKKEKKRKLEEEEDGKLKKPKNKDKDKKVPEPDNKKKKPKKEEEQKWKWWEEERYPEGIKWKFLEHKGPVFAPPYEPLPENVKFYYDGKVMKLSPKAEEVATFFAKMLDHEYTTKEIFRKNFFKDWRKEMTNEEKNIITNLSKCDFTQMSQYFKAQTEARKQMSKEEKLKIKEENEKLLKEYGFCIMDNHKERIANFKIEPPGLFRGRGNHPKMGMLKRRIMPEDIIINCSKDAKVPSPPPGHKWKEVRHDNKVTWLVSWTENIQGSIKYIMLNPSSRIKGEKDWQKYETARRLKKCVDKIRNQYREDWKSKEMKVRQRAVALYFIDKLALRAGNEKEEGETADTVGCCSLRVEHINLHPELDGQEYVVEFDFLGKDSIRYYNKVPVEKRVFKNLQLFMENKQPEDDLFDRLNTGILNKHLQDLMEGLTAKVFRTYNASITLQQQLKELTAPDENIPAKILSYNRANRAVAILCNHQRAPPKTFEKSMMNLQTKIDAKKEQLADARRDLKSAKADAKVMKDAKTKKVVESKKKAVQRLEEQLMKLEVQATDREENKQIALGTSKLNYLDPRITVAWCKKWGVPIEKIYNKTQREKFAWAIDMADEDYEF
The note with it: metabolite formed by nonspecific carboxylesterases; cited from earlier work.

The test system of series [2] is PDX 19015 pancreatic cancer xenograft. Briefly: Patient-derived xenograft (PDX #19015) pancreatic cancer mouse efficacy model. The class given is in vivo. To be noted: FIG. 6D, relative to the control group. On the technique in general: Xenograft models place foreign cells or tissue in a host animal.
Protocol: Treatment doses are indicated in the figure beside each treatment, and were given 4 times.
Significance was determined by ordinary 2-way analysis of variance (ANOVA). The regimens were administered on days 0, 7, 14 and 21 of the study.
Female CB.17 SCID mice were obtained from Roswell Park Cancer Institute (Buffalo, N.Y.), initially at 6-8 weeks of age. Per treatment group, 8 animals were treated, unless otherwise indicated. Tumor pieces were derived from donor mice and engrafted subcutaneously.
5-FU was administered intraperitoneally. […] Tolerability: Mouse weights were measured once weekly to monitor treatment tolerability.
The conditions of series [3]: cited from earlier work.
A short description of series [4]: Delayed dosing of oxaliplatin: tolerability, hematologic and liver toxicities in naive CD-1 mice. The note with it: intravenous, pre-defined.
Protocol: Tolerability studies were performed in naïve (non-tumor-bearing) mice. Three animals were treated per group.
Each drug was administered individually, or in combination. […] A single administration of each drug was given. Mouse body weights were measured daily for up to 2 weeks post-treatment.
Measurement of hematologic and liver toxicities: At the end of study, terminal bleeds were performed for each mouse via cardiac puncture. Hematologic function (blood cell count) was measured by Hemavet (Drew Scientific, Miami Lakes, Fla.), according to manufacturer's protocol. Liver function (enzyme levels) was measured by CatalystDx (Idexx Laboratories, Westbrook, Me.) according to the manufacturer's protocol.
For series [5] the following is noted: Phase 3 study of the FOLFIRINOX combination; cited from earlier work.

As to `CCc1c2c(nc3ccc(O)cc13)-c1cc3c(c(=O)n1C2)COC(=O)[C@]3(O)CC` [SN-38], the cell growth inhibition entry in series [1] is listed as “prolonged exposure also led to increased cell growth inhibition”. The “activity relative to irinotecan” value at topoisomerase I is given as 100-1000 fold.

For the compound `CCc1c2c(nc3ccc(OC(=O)N4CCC(N5CCCCC5)CC4)cc13)-c1cc3c(c(=O)n1C2)COC(=O)[C@]3(O)CC` [irinotecan, (S)-4,11-diethyl-3,4,12,14-tetrahydro-4-hydroxy-3,14-dioxo1H-pyrano[3′,4′: 6,7]-indolizino[1,2-b]quinolin-9-yl-[1,4′bipiperidine]-1′-carboxylate], the overall survival result in series [2] is “No benefit of added 5-FU or oxaliplatin”. Moreover, the “incidence of grade 4 neutropenia” value in series [3] (patients heterozygous for UGT1A1*28 (6/7 genotype), single-agent irinotecan 350 mg/m^2 once every-3-weeks) is 12.5%; in series [3] (patients homozygous for the UGT1A1*28 allele, single-agent irinotecan 350 mg/m^2 once every-3-weeks), 50%; in series [3] (patients homozygous for the wild-type allele (UGT1A1 6/6 genotype)) it was “no grade 4 neutropenia was observed”.

As for `O=C(O)C(=O)O.[NH-][C@@H]1CCCC[C@H]1[NH-].[Pt+2]` [oxaliplatin], the maximum tolerated dose in series [4] is given as 17 mg/kg.

For FOLFIRINOX, the “incidence of most common Grade 3-4 adverse events (neutropenia, fatigue, vomiting, diarrhea, thrombocytopenia, sensory neuropathy, anemia, elevated ALT, thromboembolism, febrile neutropenia)” value in series [5] is reported as over 5%.
